From patent US20250262222A1, “HETEROCYCLIC COMPOUNDS, COMPOSITIONS THEREOF, AND METHODS OF TREATMENT THEREWITH” (BeiGene Switzerland GmbH, priority 2022, published 2025) come the findings set out here.

Assay [1] deals with pERK1/2(THR202/TYR204) level in SW620 cell line. Description: KRAS G12V pERK assay. As to conditions: Homo sapiens, SW-620; SW620 cells, 2 hrs compound treatment, HTRF. The format is cell-based. On the procedure:
(§1) SW620 cell line was used in this study. Cells were maintained in RPMI 1640 supplemented with 10% fetal bovine serum (Thermo Fisher), 50 units/mL penicillin and streptomycin (Thermo Fisher) and kept at 37° C. in a humidified atmosphere of 5% CO2 in air. Cells were reinstated from frozen stocks that were laid down within 30 passages from the original cells purchased. 40000 cells per well were seeded into a 96-well plate and incubated overnight. Cells were treated with a 10-point dilution series. The final compound concentration is from 0 to 10 μM. After 2 hrs compound treatment, cells were lysed, and the pERK1/2(THR202/TYR204) level in the cell lysates was detected by HTRF kit (Cisbio). In brief, a total of 16 μL of cell lysate from each well of a 96-well plate was transferred to a 384-well white assay plate. Lysate from each well was incubated with 2 μL of Eu3+-cryptate (donor) labeled anti-phospho-ERK1/2 and 2 μL of D2 (acceptor) labeled anti-phospho-ERK1/2 antibodies (Cisbio) overnight in dark at room temperature. When donor and acceptor are in close proximity, excitation of the donor with laser triggers a Fluorescence Resonance Energy Transfer (FRET) towards the acceptor, which in turn fluoresces at 655 nm wavelength. FRET signals were measured using a PHERAstar FSX reader (BMG Labtech). IC50 determination was performed by fitting the curve of percent inhibition versus the log of the inhibitor concentration using Dotmatics.

Assay [2] deals with pERK1/2(THR202/TYR204) level in AsPC-1 cell line. Description: KRAS G12D pERK assay. It counts as cell-based. As to conditions: Homo sapiens, ASPC1, 2 h, AsPC-1 cells, 2 h compound treatment, HTRF. On the procedure: as §1, with “AsPC-1” for “SW620”, “RPMI-1640” for “RPMI 1640”, “30000” for “40000”, “h” for “hrs”

`N#Cc1c(N)sc2c(F)ccc(-c3c(Cl)c4c5c(nc(OC[C@@]67CCCN6C[C@H](F)C7)nc5c3F)N3CCOC[C@H]3CO4)c12` (single isomer, unassigned) [Example 14-Isomer 2]: half-maximal inhibition in assay [1] (IC50) was put at 33 nM.

`Nc1cc(Cl)c(C(F)(F)F)c(-c2nc3c4c(nc(OCC56CCC(COC5)C6)nc4c2F)N2C[C@H]4CC[C@H](N4)[C@H]2CCO3)c1` [Example 45, 3-((6aR,7S,10R)-13-((3-oxabicyclo[3.2.1]octan-1-yl)methoxy)-1-fluoro-5,6,6a,7,8,9,10,11-octahydro-4-oxa-3,11a,12,14,15-pentaaza-7,10-methanocyclohepta[4,5]cyclo-octa[1,2,3-de]naphthalen-2-yl)-5-chloro-4-(trifluoromethyl)aniline]: the IC50 (usually the midpoint of a concentration-inhibition curve) in assay [2] was 221 nM.

`CN1C(=O)OC2CC1(COc1nc3c4c(nc(-c5cc(N)cc(Cl)c5C(F)(F)F)c(F)c4n1)OCC[C@@H]1[C@@H]4CC[C@H](CN31)N4)C2` [Example 46, 5-((((6aR,7S,10R)-2-(5-amino-3-chloro-2-(trifluoromethyl)phenyl)-1-fluoro-5,6,6a,7,8,9,10,11-octahydro-4-oxa-3,11a,12,14,15-pentaaza-7,10-methanocyclohepta[4,5]cyclo-octa[1,2,3-de]naphthalen-13-yl)oxy)methyl)-4-methyl-2-oxa-4-azabicyclo[3.1.1]heptan-3-one]: the IC50 in assay [2] was 4860 nM. This IC50 lies about 22-fold higher than the previous one.

In the case of `CN1C(=O)OC2(C)CC1(COc1nc3c4c(nc(-c5cc(N)cc(Cl)c5C(F)(F)F)c(F)c4n1)OCC[C@@H]1[C@@H]4CC[C@H](CN31)N4)C2` [Example 47, 5-((((6aR,7S,10R)-2-(5-amino-3-chloro-2-(trifluoromethyl)phenyl)-1-fluoro-5,6,6a,7,8,9,10,11-octahydro-4-oxa-3,11a,12,14,15-pentaaza-7,10-methanocyclohepta[4,5]cyclo-octa[1,2,3-de]naphthalen-13-yl)oxy)methyl)-1,4-dimethyl-2-oxa-4-azabicyclo[3.1.1]heptan-3-one], the IC50 in assay [2] came to 1930 nM.

Take `CC12COCC(COc3nc4c5c(nc(-c6cc(N)cc(Cl)c6C(F)(F)F)c(F)c5n3)OCC[C@@H]3[C@@H]5CC[C@H](CN43)N5)(C1)C2` [Example 48, 3-chloro-5-((6aR,7S,10R)-1-fluoro-13-((5-methyl-3-oxabicyclo[3.1.1]heptan-1-yl)methoxy)-5,6,6a,7,8,9,10,11-octahydro-4-oxa-3,11a,12,14,15-pentaaza-7,10-methanocyclohepta[4,5]cyclo-octa[1,2,3-de]naphthalen-2-yl)-4-(trifluoromethyl)aniline]: the IC50 in assay [2] worked out at 296 nM.

In turn, `Cc1cc(N)cc(-c2nc3c4c(nc(OCC56COC(CF)(C5)C6)nc4c2F)N2C[C@H]4CC[C@H](N4)[C@H]2CCO3)c1C(F)(F)F` [Example 49, 3-((6aR,7S,10R)-1-fluoro-13-((1-(fluoromethyl)-2-oxabicyclo[2.1.1]hexan-4-yl)methoxy)-5,6,6a,7,8,9,10,11-octahydro-4-oxa-3,11a,12,14,15-pentaaza-7,10-methanocyclohepta[4,5]cyclo-octa[1,2,3-de]naphthalen-2-yl)-5-methyl-4-(trifluoromethyl)aniline] showed an IC50 in assay [2] of 172 nM.

In turn, `Nc1cc(Cl)c(C(F)(F)F)c(-c2nc3c4c(nc(OCC56COC(CF)(C5)C6)nc4c2F)N2C[C@H]4CC[C@H](N4)[C@H]2CCO3)c1` [Example 50, 3-chloro-5-((6aR,7S,10R)-1-fluoro-13-((1-(fluoromethyl)-2-oxabicyclo[2.1.1]hexan-4-yl)methoxy)-5,6,6a,7,8,9,10,11-octahydro-4-oxa-3,11a,12,14,15-pentaaza-7,10-methanocyclohepta[4,5]cyclo-octa[1,2,3-de]naphthalen-2-yl)-4-(trifluoromethyl)aniline] yielded an IC50 in assay [2] of 109 nM. This IC50 lies about 1.6-fold lower than the previous one.

Turning to `Cc1cc(N)cc(-c2nc3c4c(nc(OCC56CCC(C)(C5)OC6)nc4c2F)N2C[C@H]4CC[C@H](N4)[C@H]2CCO3)c1C(F)(F)F` [Example 51, 3-((6aR,7S,10R)-1-fluoro-13-((1-methyl-2-oxabicyclo[2.2.1]heptan-4-yl)methoxy)-5,6,6a,7,8,9,10,11-octahydro-4-oxa-3,11a,12,14,15-pentaaza-7,10-methanocyclohepta[4,5]cyclo-octa[1,2,3-de]naphthalen-2-yl)-5-methyl-4-(trifluoromethyl)aniline], the 50% inhibitory concentration (IC50) in assay [2] stood at 272 nM.

For the compound `Nc1cc(Cl)c(C(F)(F)F)c(-c2nc3c4c(nc(OCC56COC(C(F)(F)F)(C5)C6)nc4c2F)N2C[C@H]4CC[C@H](N4)[C@H]2CCO3)c1` [Example 53, 3-chloro-5-((6aR,7S,10R)-1-fluoro-13-((1-(trifluoromethyl)-2-oxabicyclo[2.1.1]hexan-4-yl)methoxy)-5,6,6a,7,8,9,10,11-octahydro-4-oxa-3,11a,12,14,15-pentaaza-7,10-methanocyclohepta[4,5]cyclo-octa[1,2,3-de]naphthalen-2-yl)-4-(trifluoromethyl)aniline], in assay [2], the IC50 came out at 211 nM.

In turn, `COC1(COc2nc3c4c(nc(-c5cc(N)cc(Cl)c5C(F)(F)F)c(F)c4n2)OCC[C@@H]2[C@@H]4CC[C@H](CN32)N4)COC1` [Example 61, 3-chloro-5-((6aR,7S,10R)-1-fluoro-13-((3-methoxyoxetan-3-yl)methoxy)-5,6,6a,7,8,9,10,11-octahydro-4-oxa-3,11a,12,14,15-pentaaza-7,10-methanocyclohepta[4,5]cyclo-octa[1,2,3-de]naphthalen-2-yl)-4-(trifluoromethyl)aniline] showed an IC50 in assay [2] of 332 nM. Compared with the last compound, the IC50 is about 1.6-fold higher.

Compound `COCC1(COc2nc3c4c(nc(-c5cc(N)cc(Cl)c5C(F)(F)F)c(F)c4n2)OCC[C@@H]2[C@@H]4CC[C@H](CN32)N4)COC1` [Example 62, 3-chloro-5-((6aR,7S,10R)-1-fluoro-13-((3-(methoxymethyl)oxetan-3-yl)methoxy)-5,6,6a,7,8,9,10,11-octahydro-4-oxa-3,11a,12,14,15-pentaaza-7,10-methanocyclohepta[4,5]cyclo-octa[1,2,3-de]naphthalen-2-yl)-4-(trifluoromethyl)aniline] returned an IC50 in assay [2] of 346 nM.

In the case of `Nc1cc(Cl)c(C(F)(F)F)c(-c2nc3c4c(nc(OCC5(C(F)F)CCOC5)nc4c2F)N2C[C@H]4CC[C@H](N4)[C@H]2CCO3)c1` (stereo partly drawn) [Example 63, 3-chloro-5-((6aR,7S,10R)-13-((3-(difluoromethyl)tetrahydrofuran-3-yl)methoxy)-1-fluoro-5,6,6a,7,8,9,10,11-octahydro-4-oxa-3,11a,12,14,15-pentaaza-7,10-methanocyclohepta[4,5]cyclo-octa[1,2,3-de]naphthalen-2-yl)-4-(trifluoromethyl)aniline], in assay [2], the midpoint of inhibition, the IC50, lay at 151 nM.

The compound `CC1(COc2nc3c4c(nc(-c5cc(N)cc(Cl)c5C(F)(F)F)c(F)c4n2)OCC[C@@H]2[C@@H]4CC[C@H](CN32)N4)COC1` [Example 66, 3-chloro-5-((6aR,7S,10R)-1-fluoro-13-((3-methyloxetan-3-yl)methoxy)-5,6,6a,7,8,9,10,11-octahydro-4-oxa-3,11a,12,14,15-pentaaza-7,10-methanocyclohepta[4,5]cyclo-octa[1,2,3-de]naphthalen-2-yl)-4-(trifluoromethyl)aniline] had an IC50 in assay [2] of 145 nM.

Turning to `Nc1cc(Cl)c(C(F)(F)F)c(-c2nc3c4c(nc(OCC56COCC(C5)C6)nc4c2F)N2C[C@H]4CC[C@H](N4)[C@H]2CCO3)c1` [Example 67, 3-((6aR,7S,10R)-13-((3-oxabicyclo[3.1.1]heptan-1-yl)methoxy)-1-fluoro-5,6,6a,7,8,9,10,11-octahydro-4-oxa-3,11a,12,14,15-pentaaza-7,10-methanocyclohepta[4,5]cyclo-octa[1,2,3-de]naphthalen-2-yl)-5-chloro-4-(trifluoromethyl)aniline], in assay [2], the IC50 was 169 nM. This IC50 and that of the compound before are within 1.5-fold of each other.

As for `CCc1cc(N)cc(-c2nc3c4c(nc(OCC56COC(C5)C6)nc4c2F)N2C[C@H]4CC[C@H](N4)[C@H]2CCO3)c1C(F)(F)F` [Example 68, 3-((6aR,7S,10R)-13-((2-oxabicyclo[2.1.1]hexan-4-yl)methoxy)-1-fluoro-5,6,6a,7,8,9,10,11-octahydro-4-oxa-3,11a,12,14,15-pentaaza-7,10-methanocyclohepta[4,5]cycloocta[1,2,3-de]naphthalen-2-yl)-5-ethyl-4-(trifluoromethyl)aniline], in assay [2], 548 nM corresponded to half-maximal inhibition (IC50).
